# According to patent publication US20260265329A1, “POLYPEPTIDE AND DERIVATIVE THEREOF, COMPOSITION, AND USE THEREOF” (HANGZHOU SCIWIND BIOSCIENCES CO., LTD., priority 2023, published 2026):
# Starred links: 1 amine or outer side, 2 acyl side, 3 side chain; linkers in the order of their positions; H or OH if unused. Non-standard residues stand in square brackets, D forms with d. Residues, ends and D or L forms follow the SMILES beside them. *: point of attachment. C20 diacid = O=C(O)CCCCCCCCCCCCCCCCCCC(=O)*; γGlu = O=C(O)[C@H](CCC(=O)[*:2])N[*:1]; Hyp = O=C(O)[C@@H]1C[C@@H](O)CN1
# Assays:
# [1] = in vivo; set-up: species or system SD rats; conditions: rat, sc, 1 mg/kg
# Experimental: The animals received a subcutaneous injection of corresponding compounds for testing (1 mg/kg and 5 ml/kg), and the day of administration was designated as D1. The whole blood of the animals was collected pre dose (-10 min) on D1 and post dose at D1-2h, D1-4h, D1-6h, D2-24h, D3-48h, D4-72h, D5-96h, and D6-120 h and was processed into plasma (using EDTA for anticoagulation). Liquid chromatography-tandem mass spectrometry (LC-MS/MS) was used to detect the concentration of drug molecules in the plasma, and GraphPad Prism 10 was utilized to plot a concentration-time curve for the drugs whose pharmacokinetic parameters including Cmax, Tmax, T1/2, AUC, and MRT were then calculated with PKSolver.
# [2] = Heat accelerated stability assay, 40° C., detection on 7 d and 28 d; assay type: physicochemical
# Experimental: The derivatives (1 mg/mL) were mixed with sodium dihydrogen phosphate (1.42 mg/mL) and dissolved in ultrapure water. After adjusting pH to about 7.4 with hydrochloric acid/sodium hydroxide, the solution was filtered into a sterilized vial in a clean bench using a 0.22 μm sterile filter. The vial was then capped and placed into the stability test chamber at 40° C. Detections were made on Days 7 (7d) and 28 (28d), and during the assay, changes in the characteristics and properties of the polypeptides were observed and recorded. The sample was then centrifuged for 3 min at 10000 rpm at 4° C., and the supernatant was transferred to a liquid phase sample vial for detecting the concentration and purity of the polypeptides using liquid phase chromatography described as below.
# Conditions of the reversed phase chromatography Flow rate: 1.0 mL/min; Autosampler temperature: 15° C.; Column temperature: 25° C.; Detection wavelength: 214 nm; Mobile phase A: 100% H2O+0.05% TFA; Mobile phase B: 100% ACN; and Gradient of elution listed in Table 4: […]
# [3] = Heat accelerated stability assay, 40° C., detection on 10 d and 20 d; assay type: physicochemical; conditions: 1 mg/mL, pH about 7.4, 40° C.
# Method in brief: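 Polypeptide derivatives at 1 mg/mL with sodium dihydrogen phosphate (1.42 mg/mL) in water, pH ~7.4, sterile-filtered and held at 40° C. Sampled at 10 d and 20 d, centrifuged, and supernatant analysed by HPLC (214 nm, 25° C., phosphate pH 5.8/ACN gradient) for concentration and purity.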
# [4] = biological target: T1, human amylin receptors (Homo sapiens, UniProt O60896+P30988); assay: Luciferase assay in stably transfected amylin receptor/CRE-luc CHO cell line; assay type: cell-based; conditions: for Relative activity: EC50 ratio of Cagrilintide to the compound, Cagrilintide 100%
# T1 construct: host or cells: CHO-K1/Ga15/AMY3 cells, further stably transfected with a CRE-luciferase plasmid
# T1 sequence (P30988 25-474): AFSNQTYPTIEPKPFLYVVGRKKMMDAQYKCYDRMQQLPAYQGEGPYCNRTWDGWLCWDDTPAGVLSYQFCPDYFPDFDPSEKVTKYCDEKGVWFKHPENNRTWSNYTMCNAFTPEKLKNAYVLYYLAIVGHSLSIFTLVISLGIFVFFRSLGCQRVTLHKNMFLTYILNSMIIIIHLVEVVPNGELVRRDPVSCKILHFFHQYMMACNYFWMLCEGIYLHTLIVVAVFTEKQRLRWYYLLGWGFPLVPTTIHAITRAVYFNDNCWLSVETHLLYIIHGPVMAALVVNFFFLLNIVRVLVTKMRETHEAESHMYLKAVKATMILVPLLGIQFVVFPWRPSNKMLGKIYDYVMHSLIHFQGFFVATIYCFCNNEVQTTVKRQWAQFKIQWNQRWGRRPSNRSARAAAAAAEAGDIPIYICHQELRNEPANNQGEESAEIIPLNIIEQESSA
# T1 sequence (O60896 24-148 partner): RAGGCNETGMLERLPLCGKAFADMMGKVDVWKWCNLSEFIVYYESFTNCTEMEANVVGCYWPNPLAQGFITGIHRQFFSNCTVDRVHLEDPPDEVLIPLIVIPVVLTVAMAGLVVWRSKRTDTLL
# [5] = Efficacy assay in DIO SD rats, dose-dependent study (Example 6); assay type: in vivo
# Experimental: SPF male DIO SD rats (36-37 weeks, […], fed with high-fat diet for 34 weeks from 3-week age on) were employed in this study. The experimental animals were exposed to a room temperature of 20° C.-23° C. and a relative humidity of 40%-50%, and were provided with high-fat diet D12492 and purified water supplied with water feeding bottles for free intake throughout the construction of the DIO animal model and the study. Based on their mean body weight, the animals were assigned to 6 groups designated as B1-B6 (n=5). Administration via subcutaneous injection was conducted once a day for 10 continuous days, wherein the first day of administration was designated as Day 1 (D1), and on Day 0, the initial body weight of the animals were recorded and the initial feed was added, and on Day 1-Day 11, the body weight of the studied animals as well as the remaining food were recorded daily for calculating the percentage of weight change and the amount of food intake, any anomalies during which were required to be recorded and reported. During the study, the rats were in good condition and no anomaly was observed. Weight change=(BWDn−BWD1)/BWD1*100%, wherein BW represented the value of body weight, and D1 and Dn represented the first and Nth days of administration respectively. Dots in the figures were represented utilizing mean±standard error of the mean (SEM). Accumulated food intake was the total amount of food intake for animals of each group prior to a certain time point post dose.
# [6] = Efficacy assay in SD rats, dose-dependent study (Example 5); assay type: in vivo
# Experimental: SPF male SD rats (7-8 weeks, 220-230 g) were employed in this study after health inspection and quarantine. The experimental animals were exposed to a room temperature of 20° C.-23° C. and a relative humidity of 40%-50%, and were provided with Co60 mouse reproduction feed 1035 and purified water supplied with water feeding bottles for free intake throughout the health inspection and quarantine and the study. […] Using a single dose administered via subcutaneous injection, the study lasted for a total of 6 days with the day of administration designated as Day 1/Time 0 (TO), wherein on Day 0, the initial body weight of the animals were recorded and the initial feed was added, and on Day 1-Day 5, the body weight of the studied animals as well as the remaining food were recorded daily for calculating the percentage of weight change and the amount of food intake, any anomalies during which were required to be recorded and reported. During the study, the rats were in good condition and no anomaly was observed. Weight change=(BWTn−BWT0)/BWT0* 100%, wherein BW represented the value of body weight, and T0 and Tn represented the time points of dosing and n hours post dose respectively. Dots in the figures were represented utilizing mean±standard error of the mean (SEM). Accumulated food intake was the total amount of food intake for each of the animals prior to a certain time point post dose.
# [7] = subcutaneous once a day for 10 days, 3 and 10 nmol/kg (FIGS. 4A, 4B)
# [8] = single subcutaneous dose 10, 30, 100 nmol/kg (FIGS. 3A-3D)
structure (smiles),measurement,setting,value
"CC[C@H](C)[C@H](NC(=O)[C@@H]1CCCN1C(=O)CNC(=O)[C@H](Cc1ccccc1)NC(=O)[C@H](CC(N)=O)NC(=O)[C@H](CC(N)=O)NC(=O)[C@H](CO)NC(=O)[C@H](CO)NC(=O)[C@H](Cc1c[nH]cn1)NC(=O)[C@H](CCCNC(=N)N)NC(=O)[C@H](CC(C)C)NC(=O)[C@H](Cc1ccccc1)NC(=O)[C@H](CCC(=O)O)NC(=O)[C@H](C)NC(=O)[C@H](CC(C)C)NC(=O)[C@H](CCCNC(=N)N)NC(=O)[C@H](CCC(N)=O)NC(=O)[C@@H](NC(=O)[C@H](C)NC(=O)[C@@H]1CSSC[C@H](NC(=O)[C@H](CCCCN)NC(=O)CC[C@H](NC(=O)CCCCCCCCCCCCCCCCCCC(=O)O)C(=O)O)C(=O)N[C@@H](CC(N)=O)C(=O)N[C@@H]([C@@H](C)O)C(=O)N[C@@H](C)C(=O)N[C@@H]([C@@H](C)O)C(=O)N1)[C@@H](C)O)C(=O)N[C@@H](CC(C)C)C(=O)N1CCC[C@H]1C(=O)N1CCC[C@H]1C(=O)N[C@H](C(=O)N[C@@H](CC(N)=O)C(=O)N[C@H](C(=O)NCC(=O)N[C@@H](CO)C(=O)N[C@@H](CC(N)=O)C(=O)N[C@H](C(=O)N1CCC[C@H]1C(N)=O)[C@@H](C)O)C(C)C)[C@@H](C)O [Cagrilintide, reference compound]",AUC(0-inf),[1],177 µg·h/mL
same,AUC(0-t),[1],173 µg·h/mL
same,Cmax,[1],3270 ng/mL
same,MRT inf,[1],43.4 h
same,Tmax,[1],24 h
same,half-life,[1],24.7 h
same,"Purity from the reversed phase chromatography-214 nm, 0 d","[2]; 1 mg/mL, pH about 7.4, 40° C., 0 d",90.04
same,"Purity from the reversed phase chromatography-214 nm, 7 d","[2]; 1 mg/mL, pH about 7.4, 40° C., 7 d",82.03
same,"Purity from the reversed phase chromatography-214 nm, 28 d","[2]; 1 mg/mL, pH about 7.4, 40° C., 28 d",73.89
same,Change (7 d − 0 d),"[2]; purity on 7 d − purity on 0 d, 40° C., pH about 7.4",−8.01
same,Change (28 d − 0 d),"[2]; purity on 28 d − purity on 0 d, 40° C., pH about 7.4",−16.15
same,"Reduction in purity, 10 d",[3],44.83%
same,Relative activity,[4],100%
CC[C@H](C)[C@H](NC(=O)[C@@H]1CCCN1C(=O)[C@H](CCCCN)NC(=O)[C@H](CC(C)C)NC(=O)[C@H](CCC(N)=O)NC(=O)[C@H](CCC(N)=O)NC(=O)[C@H](CO)NC(=O)[C@H](CO)NC(=O)[C@H](Cc1c[nH]cn1)NC(=O)[C@H](CCCNC(=N)N)NC(=O)[C@H](CC(C)C)NC(=O)[C@H](Cc1ccccc1)NC(=O)[C@H](CC(=O)O)NC(=O)[C@H](C)NC(=O)[C@H](CC(C)C)NC(=O)[C@H](CCCNC(=N)N)NC(=O)[C@H](CCC(N)=O)NC(=O)[C@@H](NC(=O)[C@H](C)NC(=O)[C@H](C)NC(=O)[C@@H](NC(=O)[C@H](CO)NC(=O)[C@H](CC(C)C)NC(=O)[C@H](CCC(N)=O)NC(=O)[C@H](CO)NC(=O)[C@H](C)NC(=O)CC[C@H](NC(=O)CCCCCCCCCCCCCCCCCCC(=O)O)C(=O)O)[C@@H](C)O)[C@@H](C)O)C(=O)N[C@@H](CC(C)C)C(=O)N1CCC[C@H]1C(=O)N1CCC[C@H]1C(=O)N[C@H](C(=O)N[C@@H](CC(N)=O)C(=O)N[C@H](C(=O)NCC(=O)N[C@@H](CO)C(=O)N[C@@H](CC(N)=O)C(=O)N[C@H](C(=O)N1C[C@H](O)C[C@H]1C(N)=O)[C@@H](C)O)C(C)C)[C@@H](C)O [M41] ({C20 diacid-γGlu}-ASQLSTAATQRLADFLRHSSQQLKPILPPTNVGSNT[Hyp]-NH2),Body weight and food intake reduction compared with Cagrilintide,[5]; equivalent dosage,performed better than Cagrilintide at the equivalent dosage
same,Effect on body weight,[5]; [7],dose-dependently reduced
same,Effect on food intake,[5]; [7],dose-dependently reduced
same,AUC(0-inf),"[1]; male, SD",257 µg·h/mL
same,AUC(0-t),"[1]; male, SD",250 µg·h/mL
same,Cmax,"[1]; male, SD",4780 ng/mL
same,MRT inf,"[1]; male, SD",45.9 h
same,Tmax,"[1]; male, SD",24 h
same,half-life,"[1]; male, SD",23.7 h
same,Body weight and food intake reduction compared with Cagrilintide,[6]; equivalent dosage,performed better than Cagrilintide at the equivalent dosage
same,Effect on body weight,[6]; [8],dose-dependently reduced
same,Effect on food intake,[6]; [8],dose-dependently reduced
same,"Reduction in purity, 10 d",[3],2.93%
same,"Reduction in purity, 20 d",[3]; 20 d,4.26%
same,Relative activity,[4],113%
same,EC50,"[4]; amylin receptor/CRE-luc CHO cells, 24 hours incubation, luminescence",0.08 nM
